From ChEMBL document CHEMBL1150878, “Novel cytotoxic diterpenes, excavatolides A-E, isolated from the Formosan gorgonian Briareum excavatum” (1998)
Values after ≈ are worked out from the molar mass of the structure shown.

Experiments:
Type in all cases: functional
Conditions in all cases: read-out: ED50 (the source's name)
P388 = assay: Cytotoxicity against mouse P388 cells by MTT assay
A549 = assay: Cytotoxicity against human A549 cells by MTT assay
KB = assay: Cytotoxicity against human KB cells by MTT assay
HT-29 = assay: Cytotoxicity against human HT-29 cells by MTT assay

Structure (SMILES) | EC50 (P388) [µg/mL] | EC50 (A549) [µg/mL] | EC50 (KB) [µg/mL] | EC50 (HT-29) [µg/mL]
CC(=O)O[C@H]1C[C@H](OC(C)=O)[C@@]2(C)[C@H]([C@H]1C)[C@]1(O)[C@@]2(OC(C)=O)CC/C(C)=C\[C@@H]2OC(=O)[C@@]3(C)O[C@@]213 | 5.8 (≈ 11.5 µM) | 37.2 (≈ 73.4 µM) | > 50 | 4.4 (≈ 8.69 µM)
C=C1[C@H]2O[C@H]2[C@@]2(O)[C@@]3(C)[C@H]4O[C@H]4[C@H](OC(C)=O)[C@H](C)[C@@H]3[C@@]2(OC(C)=O)[C@]2(O)[C@@H](C)C(=O)O[C@H]2[C@H]1Cl [BRIANOLIDE] | > 50 | > 50 | > 50 | > 50
C=C1[C@@H]2C[C@@]3(OC(C)=O)[C@@]4(C)[C@@H](OC(C)=O)CC=C(C)[C@@H]4[C@@]3(O)[C@]3(O2)[C@@H](C)C(=O)O[C@H]3[C@H]1Cl [EXCAVATOLIDE A] | > 50 | 21.9 (≈ 45.5 µM) | 2.5 (≈ 5.2 µM) | > 50
CCCC(=O)O[C@H]1C/C(C)=C\[C@@H]2OC(=O)[C@@]3(C)O[C@]23[C@]2(OC(C)=O)[C@H]3[C@@H](C)[C@@H](O)C[C@H](OC(C)=O)[C@]3(C)[C@]12OC(C)=O [EXCAVATOLIDE B] | > 50 | > 50 | > 50 | > 50
CC(=O)O[C@H]1C[C@H](O)[C@H](C)[C@H]2[C@@]1(C)[C@]1(OC(C)=O)[C@@H](OC(C)=O)C/C(C)=C\[C@@H]3OC(=O)[C@@]4(C)O[C@]34[C@]21OC(C)=O [EXCAVATOLIDE C] | 0.3 (≈ 0.531 µM) | 1.9 (≈ 3.37 µM) | 1.9 (≈ 3.37 µM) | 1.9 (≈ 3.37 µM)
CC(=O)O[C@H]1C[C@H](O)[C@H](C)[C@H]2[C@@]1(C)[C@]1(O)[C@@H](OC(C)=O)C/C(C)=C\[C@@H]3OC(=O)[C@@]4(C)O[C@]34[C@]21OC(C)=O [EXCAVATOLIDE D] | 1.8 (≈ 3.44 µM) | > 50 | 4.2 (≈ 8.04 µM) | 1.3 (≈ 2.49 µM)
CC(=O)O[C@H]1C[C@H](O)[C@H](C)[C@H]2[C@@]1(C)[C@]1(OC(C)=O)CC/C(C)=C\[C@@H]3OC(=O)[C@@]4(C)O[C@]34[C@]21O [EXCAVATOLIDE E] | 1.6 (≈ 3.44 µM) | 1.2 (≈ 2.58 µM) | 0.8 (≈ 1.72 µM) | 1.6 (≈ 3.44 µM)
